Here are results for one compound from patent US6974822B2, “3-isoquinolinone derivatives as matrix metalloproteinase inhibitors” (Warner-Lambert Company LLC, priority 2002, dated 2005).

The test deals with T1, human MMP-13 catalytic domain (hMMP-13CD) (Homo sapiens, UniProt P45452).
T1 construct: a human MMP-13 catalytic domain (“hMMP-13CD”)
In words: Inhibition of MMP-13 catalytic domain (thiopeptolide substrate hydrolysis, IC50). It is filed as biochemical. The source says: The assays measure the amount by which a test compound reduces the hydrolysis of a thiopeptolide substrate catalyzed by a matrix metalloproteinase enzyme. Such assays are described in detail by Ye et al., in Biochemistry, 1992;31(45):11231-11235, which is incorporated herein by reference. One such assay is described below in Biological Method 1.
Some of the particular methods described below use the catalytic domain of the MMP-13 enzyme, namely matrix metalloproteinase-13 catalytic domain (“MMP-13CD”), rather than the corresponding full-length enzyme, MMP-13. It has been shown previously by Ye Qi-Zhuang, Hupe D., and Johnson L. (Current Medicinal Chemistry, 1996;3:407-418) that inhibitor activity against a catalytic domain of an MMP is predictive of the inhibitor activity against the respective full-length MMP enzyme.
Thiopeptolide substrates show virtually no decomposition or hydrolysis at or below neutral pH in the absence of a matrix metalloproteinase enzyme. A typical thiopeptolide substrate commonly utilized for assays is Ac-Pro-Leu-Glythioester-Leu-Leu-Gly-OEt. […] The change in absorbance at 405 nm is monitored on a Thermo Max microplate reader (molecular Devices, Menlo Park, Calif.) at room temperature (22° C.). […]
Some representative compounds of Formula I have been evaluated for their ability to inhibit MMP-13. […]

Molecules are shown by their SMILES.

For `O=C(O)c1ccc(Cn2ccc3ccc(C#CCn4ccnn4)cc3c2=O)cc1` [4-[1-oxo-7-(3-[1,2,3]triazol-1-ylprop-1-ynyl)-1H-isoquinolin-2-ylmethyl]benzoic acid], the IC50 is over 50 µM.

One may read the IC50 as the midpoint of a concentration-inhibition curve.
